Values belong to the molecule of their own block, whether it stands above or below them.
Columns and labels:
[1] = physiological pH; cited from earlier work
carp [2] = conditions: in vivo
Excerpt: (§1) The data in FIG. 8 leads to several conclusions. […] Importantly, members of both the ‘A’ and ‘SP’ AA groups are NOT considered to be physiologically significant. […] Thus, as a direct consequence, it is strongly inferred that only AAs belonging to the ‘B’ and ‘LN’ groups are physiologically significant with regard to the fishes' ability to detect forage via the recognition of solvated AAs.

carp [3] = assay: Stimulatory response (average feeding time/fish) to VAL/LYS solutions, FIG. 8; type: in vivo
Excerpt: FIG. 8 is a graph showing stimulatory response as a function of composition for mixtures of L-Valine (V) and L-Lysine (K).
The relationship between stimulatory response (as determined through average feeding time/fish) and AA ratio for a variety of net equimolar mixtures comprised of VAL (V) and LYS (K), as well as reference solutions containing the respective individual AAs is shown in FIG. 8.
as §1

SMILES: N[C@@H](Cc1c[nH]cn1)C(=O)O [L-Histidine]
fraction protonated [1]: approximately 10%

physiological distress on exposure (carp [2]): signs of physiological distress
SMILES: NC(=O)CC[C@H](N)C(=O)O [GLU, glutamine]

SMILES: NCCCC[C@H](N)C(=O)O [LYS, L-Lysine]
stimulatory response (average feeding time/fish) (carp [3]; net equimolar VAL/LYS mixtures and 0.5% single AA reference solutions): significantly enhanced stimulatory response

physiological distress on exposure (carp [2]): signs of physiological distress
SMILES: N[C@@H](CO)C(=O)O [SER, serine]

SMILES: CC(C)[C@H](N)C(=O)O [VAL, L-Valine]
stimulatory response relative to that observed for a similar strength LYS solution (carp [3]; similar concentration (0.5%) solution): approximately 50%

— US20120177779A1, “FISH FEEDING STIMULANT AND PRODUCT” (priority 2008, published 2012)
